{"source": "patent US10160771B2", "about": "“Hepatitis C virus inhibitors and uses thereof in preparation of drugs” (priority 2014, dated 2018)", "key": {"[1]": {"system": "HCV genotype 1b (HCV-1b) replicon cells", "assay": "HCV genotype 1b replicon luciferase assay (EC50)", "type": "cell-based, hepatitis C virus genotype 1b (Con1 clone)", "conditions": "3 days, luciferase (Bright-Glo)", "procedure": "(§1) The EC50 and CC50 values of anti-HCV compounds were determined by HCV genotype 1a (HCV-1a) and 1B (HCV-1b) stable transfer replication (replicon) cells. The source of genotype 1a replicon is H77 clones containing K1691R, K2040R and S2204I adaptive mutations. The source of genotype 1b replicon is Con1 clones containing E1202G, T1280I and K1846T adaptive mutations.\n(§2) HCV 1a (HCV-1a) and 1b (HCV-1b) gene subtype replicon system contains the related HCV gene subtype non structural protein gene, G418 resistance gene NEO and luciferase gene, which results in that HCV related protein and luciferase can be stably expressed in cells. By detecting the level of expression of luciferase gene, the level of HCV replication can be determined. Therefore, the system is used as a model for screening the activity of anti-HCV compound in vitro.\n(§3) HCV Replicon Cell Lines: HCV-1a and HCV-1b Cells\n(§4) The compound powder was dissolved in 100% DMSO. Then the compound was diluted 5 times with 6 points, and added into the cell plate with Echo liquid handler. Ensure the final concentration of DMSO was 0.5%. Each compound was tested in double holes. Maximum initial concentration was 100, 10 or 1 nM, 5 times dilution, 6 points.\n(§5) b) Cell Culture (HCV-1a or HCV-1b Replicon Cell):\n(§6) 1) absorbing the culture supernatant of the cell culture and washing the cells with 10 mL PBS.\n(§7) 2) adding preheated pancreatin to the washed cell culture flasks, rotating culture bottle to make the bottom of the culture bottle uniformly covered by pancreatin, then placed into 37° C., 5% CO2 incubator to digest.\n(§8) 3) suspending cells in each T150 culture flask with 10-15 mL culture medium, absorbing 0.1 mL liquid and diluting 2 times by trypan blue solution as counted.\n(§9) 4) diluting cells to 8×10^4/mL with the culture medium, adding the diluted cells into the compound-containing 96-well plate (Greiner, Cat.#655090) (100 μL/well, 8000 cells/well) with automatic liquid separator (Thermo Scientific). Then place into a 37° C., 5% CO2 incubator for 3 days. Cell control well: no compound, only containing 0.5% DMSO.\n(§10) 6) then adding luciferase luminescence substrate Bright-Glo, after incubation for 5 minutes, detecting the luciferase activity by chemical luminescence detection system Envison (wavelength>700 nm); analyzing the anti-HCV inhibitory activity of the compounds according to luciferase data, which was used to calculate EC50 values.\n(§11) The EC50 or CC50 values were obtained by nonlinear fitting analysis on inhibition percentage (inh %) data with GraphPad Prism software."}, "[2]": {"assay": "Cell Titer-fluor cell activity assay in HCV-1b replicon cells (CC50)", "type": "cell-based", "procedure": "as §1, §3, §4, §5, §6, §7, §8, §9\n5) adding chemiluminescent substrate Cell Titer-fluor to the cell well, after incubation for 30 minutes, detecting the signal by chemiluminescence detection system Envison (Ex at 405 nm and read at 515 nm). The effect of the compounds on the activity of HCV replicon cells was analyzed according to the luminescence data, which was used to calculate the CC50 values.\nas §11"}, "[3]": {"system": "HCV genotype 1a (HCV-1a) replicon cells", "assay": "HCV genotype 1a replicon luciferase assay (EC50)", "type": "cell-based, hepatitis C virus genotype 1a (H77 clone)", "conditions": "3 days, luciferase (Bright-Glo)", "procedure": "as §1, §2, §3, §4, §5, §6, §7, §8, §9, §10, §11"}}}
{"compound": "COC(=O)N[C@H](C(=O)N1CCC[C@H]1c1ncc(-c2ccc(-c3ccc4cc(-c5cnc(C6CCCC[C@H]6C(=O)N(NC(=O)OC)C(C)C)[nH]5)ccc4c3)cc2)[nH]1)C(C)C", "note": "(stereo partly drawn) [AA_071]", "values": [{"measurement": "EC50", "setting": "[1]; Hepatitis C virus, 72 h", "result": "1 to 10", "unit": "nM"}, {"measurement": "CC50 at 3 days", "setting": "[2]", "result": "> 10", "unit": "nM"}]}
{"compound": "COC(=O)N[C@H](C(=O)N1CCC[C@H]1c1ncc(-c2ccc(-c3ccc(-c4cnc(C5CCC[C@H]5C(=O)NC(C)C)[nH]4)cc3)cc2)[nH]1)C(C)C", "note": "(stereo partly drawn) [AA_028]", "values": [{"measurement": "EC50", "setting": "[1]; Hepatitis C virus, 72 h", "result": "1 to 10", "unit": "nM"}, {"measurement": "CC50 at 3 days", "setting": "[2]", "result": "> 100", "unit": "nM"}]}
{"compound": "COC(=O)N[C@H](C(=O)N1CCC[C@H]1c1[nH]c(-c2ccc(-c3ccc4cc(-c5cnc(C6CCCC[C@@H]6C(=O)N(NC(=O)OC)C(C)C)[nH]5)ccc4c3)cc2)c2c1CCC2)C(C)C", "note": "(stereo partly drawn) [AA_094]", "values": [{"measurement": "EC50", "setting": "[1]; Hepatitis C virus, 72 h", "result": "10 to 100", "unit": "nM"}, {"measurement": "CC50 at 3 days", "setting": "[2]", "result": "> 10", "unit": "nM"}]}
{"compound": "COC(=O)N[C@H](C(=O)N1CCC[C@H]1c1ncc(-c2ccc(-c3ccc(-c4cnc([C@@H]5[C@H]6CC[C@H](C6)[C@H]5C(=O)NN5CC[C@H](C)C5=O)[nH]4)cc3)cc2)[nH]1)C(C)C", "note": "[AA_295_ENDOA2_B]", "values": [{"measurement": "EC50", "setting": "[1]; Hepatitis C virus, 72 h", "result": "0.101 to 1", "unit": "nM"}, {"measurement": "EC50", "setting": "[3]; Hepatitis C virus, 72 h", "result": "10 to 100", "unit": "nM"}]}
{"compound": "COC(=O)N[C@H](C(=O)N1CCC[C@H]1c1ncc(-c2ccc(-c3ccc(-c4ccc(C5CCCC5C(=O)NCc5cccnc5)[nH]4)cc3)cc2)[nH]1)[C@@H](C)OC", "note": "(stereo partly drawn) [AG_096]", "values": [{"measurement": "EC50", "setting": "[1]; Hepatitis C virus, 72 h", "result": "0.001 to 0.1", "unit": "nM"}, {"measurement": "EC50", "setting": "[3]; Hepatitis C virus, 72 h", "result": "10 to 100", "unit": "nM"}]}
{"compound": "COC(=O)N[C@H](C(=O)N1CCC[C@H]1c1ncc(-c2ccc(-c3ccc(-c4cnc(C5CCCC[C@H]5C(=O)N(NC(=O)OC)C(C)C)[nH]4)cn3)cc2)[nH]1)C(C)C", "note": "(stereo partly drawn) [AA_108]", "values": [{"measurement": "EC50", "setting": "[1]; Hepatitis C virus, 72 h", "result": "1 to 10", "unit": "nM"}, {"measurement": "CC50 at 3 days", "setting": "[2]", "result": "> 10", "unit": "nM"}]}
{"compound": "COC(=O)N[C@H](C(=O)N1CCC[C@H]1c1cc(Cl)c(-c2ccc(-c3ccc(-c4cnc([C@@H]5CCCN5C(=O)[C@@H](NC(=O)OC)[C@@H](C)OC)[nH]4)cc3)cc2)[nH]1)[C@@H](C)OC", "note": "[AG_095]", "values": [{"measurement": "EC50", "setting": "[1]; Hepatitis C virus, 72 h", "result": "0.001 to 0.1", "unit": "nM"}, {"measurement": "EC50", "setting": "[3]; Hepatitis C virus, 72 h", "result": "0.101 to 1", "unit": "nM"}]}
{"compound": "COC(=O)NN(C(=O)C1=C(c2ncc(-c3ccc(-c4ccc(-c5cnc(C6=C(C(=O)N(NC(=O)OC)C(C)C)CCC6)[nH]5)cc4)cc3)[nH]2)CCC1)C(C)C", "note": "[AA_033]", "values": [{"measurement": "EC50", "setting": "[1]; Hepatitis C virus, 72 h", "result": "10 to 100", "unit": "nM"}, {"measurement": "EC50", "setting": "[3]; Hepatitis C virus, 72 h", "result": "10 to 100", "unit": "nM"}]}
{"compound": "COC(=O)NN(C(=O)[C@@H]1C2C=CC(C2)C1c1ncc(-c2ccc(-c3ccc(-c4cnc(C5C6C=CC(C6)[C@@H]5C(=O)N(NC(=O)OC)C(C)C)[nH]4)cc3)cc2)[nH]1)C(C)C", "note": "(stereo partly drawn) [AA_034]", "values": [{"measurement": "EC50", "setting": "[1]; Hepatitis C virus, 72 h", "result": "10 to 100", "unit": "nM"}, {"measurement": "EC50", "setting": "[3]; Hepatitis C virus, 72 h", "result": "10 to 100", "unit": "nM"}]}
{"compound": "COC(=O)N[C@H](C(=O)N1CCC[C@H]1c1ccc(-c2ccc(-c3ccc(-c4cnc([C@@H]5CCCN5C(=O)C5(NC(=O)OC)CC5)[nH]4)cc3)cc2)[nH]1)C(C)C", "note": "[AG_097]", "values": [{"measurement": "EC50", "setting": "[1]", "result": "0.001 to 0.1", "unit": "nM"}, {"measurement": "EC50", "setting": "[3]", "result": "10 to 100", "unit": "nM"}]}
{"compound": "COC(=O)N[C@H](C(=O)N1CCC[C@H]1c1ncc(-c2ccc(-c3ccc(-c4cnc([C@@H]5[C@H]6CC[C@H](C6)[C@H]5C(=O)N[C@H](C)c5nccs5)[nH]4)cc3)cc2)[nH]1)C(C)C", "note": "[AA_279_ENDOA2_B]", "values": [{"measurement": "EC50", "setting": "[1]; Hepatitis C virus, 72 h", "result": "0.001 to 0.1", "unit": "nM"}, {"measurement": "EC50", "setting": "[3]; Hepatitis C virus, 72 h", "result": "1 to 10", "unit": "nM"}]}
{"compound": "COC(=O)N[C@H](C(=O)N1CCC[C@H]1c1ncc(-c2ccc(-c3ccc(-c4cnc([C@@H]5[C@H]6CC[C@H](C6)[C@H]5C(=O)N[C@H](C)c5cccnc5F)[nH]4)cc3)cc2)[nH]1)C(C)C", "note": "[AA_283_ENDOA2_A]", "values": [{"measurement": "EC50", "setting": "[1]; Hepatitis C virus, 72 h", "result": "0.001 to 0.1", "unit": "nM"}, {"measurement": "EC50", "setting": "[3]; Hepatitis C virus, 72 h", "result": "1 to 10", "unit": "nM"}]}
{"compound": "COC(=O)N[C@H](C(=O)N1CCC[C@H]1c1ncc(-c2ccc(-c3ccc(-c4cnc([C@@H]5[C@H]6CC[C@H](C6)[C@H]5C(=O)N[C@H](C(=O)OC)C(C)C)[nH]4)cc3)cc2)[nH]1)C(C)C", "note": "[AA_282_ENDOA2]", "values": [{"measurement": "EC50", "setting": "[1]; Hepatitis C virus, 72 h", "result": "0.001 to 0.1", "unit": "nM"}, {"measurement": "EC50", "setting": "[3]; Hepatitis C virus, 72 h", "result": "1 to 10", "unit": "nM"}]}
{"compound": "CCOC(=O)[C@@H](NC(=O)[C@@H]1[C@@H]2CC[C@@H](C2)[C@H]1c1ncc(-c2ccc(-c3ccc(-c4cnc([C@@H]5CCCN5C(=O)[C@@H](NC(=O)OC)C(C)C)[nH]4)cc3)cc2)[nH]1)C(C)C", "note": "[AA_297_ENDOA2]", "values": [{"measurement": "EC50", "setting": "[1]; Hepatitis C virus, 72 h", "result": "0.101 to 1", "unit": "nM"}, {"measurement": "EC50", "setting": "[3]; Hepatitis C virus, 72 h", "result": "10 to 100", "unit": "nM"}]}
{"compound": "COC(=O)N[C@H](C(=O)N1CCC[C@H]1c1ncc(-c2ccc(-c3ccc(-c4cnc([C@@H]5C6CCC(C6)[C@H]5C(=O)NC5(C(=O)NCC(F)F)CCCCC5)[nH]4)cc3)cc2)[nH]1)C(C)C", "note": "(stereo partly drawn) [AA_275]", "values": [{"measurement": "EC50", "setting": "[1]; Hepatitis C virus, 72 h", "result": "0.001 to 0.1", "unit": "nM"}, {"measurement": "EC50", "setting": "[3]; Hepatitis C virus, 72 h", "result": "10 to 100", "unit": "nM"}]}
